Experimental data from US8143254B2, “Methods for modulating ion channels” (Cornell Research Foundation, Inc., priority 2005, dated 2012).

Columns and labels:
Kv2.1 Y380T = target: T1, Kv2.1 Y380T (Rattus norvegicus, UniProt P15387, Y380T/Y384T); test: TEVC of oocytes expressing Y380T mutant Kv2.1; type: cell-based; settings: Y380T mutation in Kv2.1
T1 construct: expressed in transfected cells; host or cells: Xenopus laevis oocytes (cRNA from pGA1)
Excerpt: Kv2.1 mutants were constructed using the QuickChange Multi Site-Directed Mutagenesis Kit (Stratagene, La Jolla, Calif.). Mutant Kv2.1 genes (in the pGA1 oocyte expression vector for oocyte expression) were sequenced in their entirety to confirm appropriate mutations and check for inadvertent mutations, and then subcloned into a wild-type pGA1 backbone. For oocyte expression, Kv3.4 was in pBF1, Kv4.2 was in pRAT. cRNA transcripts were produced from SacII-linearized (Kv2.1), Mlullinearized (Kv3.4) and Not1-linearized (Kv4.2) DNA templates using the T3 (Kv2.1), SP6 (Kv3.4) and T7 (Kv4.2) mMessage mMachine kits (Ambion, Austin, Tex.). cRNA was quantified by spectrophotometry and its size integrity verified by gel electophoresis. Defolliculated stage V and VI Xenopus laevis oocytes (purchased from Nasco, Grand Island, N.Y.) were injected with 5 ng of cRNA encoding Kv2.1, Kv3.4 or Kv4.2. […]
Data analysis: Current-voltage relationships were obtained by measuring peak current during depolarizing pulses. Inhibition constants for DABCO blockers were calculated after generating a dose response curve by fitting with a logistic dose-response function y=A2+[A1−A2/1+(x/x0)^p], where A1 is the maximum response plateau, A2 is the minimum response plateau, x is drug concentrator, x0 is the IC50, and p the Hill slope. […]

Kv2.1-K356C = target: T2, Kv2.1-K356C (Rattus norvegicus, UniProt P15387, K360C); test: Cysteine protection experiments, K356C variant of Kv2.1 in oocytes; type: cell-based
T2 construct: expressed in transfected cells; host or cells: Xenopus laevis oocytes (cRNA from pGA1)
T2 sequence (P15387 1-857 K360C): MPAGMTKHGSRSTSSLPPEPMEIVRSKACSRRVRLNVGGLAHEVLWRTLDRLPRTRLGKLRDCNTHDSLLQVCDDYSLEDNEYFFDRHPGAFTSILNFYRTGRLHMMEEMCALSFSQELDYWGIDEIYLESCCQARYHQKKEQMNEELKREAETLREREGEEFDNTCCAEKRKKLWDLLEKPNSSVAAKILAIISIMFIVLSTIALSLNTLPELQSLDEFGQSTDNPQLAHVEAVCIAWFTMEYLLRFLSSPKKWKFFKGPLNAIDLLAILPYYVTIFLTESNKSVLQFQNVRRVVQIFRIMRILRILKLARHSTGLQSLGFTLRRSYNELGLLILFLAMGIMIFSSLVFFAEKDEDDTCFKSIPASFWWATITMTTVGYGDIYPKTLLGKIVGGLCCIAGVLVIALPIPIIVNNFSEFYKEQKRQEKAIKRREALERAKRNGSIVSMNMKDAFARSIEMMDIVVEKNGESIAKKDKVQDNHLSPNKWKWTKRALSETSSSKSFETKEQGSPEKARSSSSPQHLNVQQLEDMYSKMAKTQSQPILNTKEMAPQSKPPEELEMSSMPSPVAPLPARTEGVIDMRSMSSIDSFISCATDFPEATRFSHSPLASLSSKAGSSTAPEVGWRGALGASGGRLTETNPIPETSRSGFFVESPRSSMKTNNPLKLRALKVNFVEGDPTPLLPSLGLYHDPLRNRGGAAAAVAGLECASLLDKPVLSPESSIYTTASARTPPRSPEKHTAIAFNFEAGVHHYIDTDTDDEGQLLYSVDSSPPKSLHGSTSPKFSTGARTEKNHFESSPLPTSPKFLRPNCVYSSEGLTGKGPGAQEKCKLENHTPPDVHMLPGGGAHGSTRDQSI
Excerpt: Kv2.1 mutants were constructed using the QuickChange Multi Site-Directed Mutagenesis Kit (Stratagene, La Jolla, Calif.). Mutant Kv2.1 genes (in the pGA1 oocyte expression vector for oocyte expression) were sequenced in their entirety to confirm appropriate mutations and check for inadvertent mutations, and then subcloned into a wild-type pGA1 backbone. For oocyte expression, Kv3.4 was in pBF1, Kv4.2 was in pRAT. cRNA transcripts were produced from SacII-linearized (Kv2.1), Mlullinearized (Kv3.4) and Not1-linearized (Kv4.2) DNA templates using the T3 (Kv2.1), SP6 (Kv3.4) and T7 (Kv4.2) mMessage mMachine kits (Ambion, Austin, Tex.). cRNA was quantified by spectrophotometry and its size integrity verified by gel electophoresis. Defolliculated stage V and VI Xenopus laevis oocytes (purchased from Nasco, Grand Island, N.Y.) were injected with 5 ng of cRNA encoding Kv2.1, Kv3.4 or Kv4.2. Chinese Hamster Ovary (CHO) cells were transfected with 0.25 μg Kv2.1 cDNA, 2 μg blank plasmid and 2 μg Green fluorescent Protein in pBOB using Supetfect transfection reagent (Qiagen) 24 hours before whole-cell voltage clamp studies.
Whole-cell two-electrode voltage-clamp (TEVC) recordings were performed on X laevis oocytes expressing cloned Kv2.1, Kv3.4 or Kv4.2 using a Warner OC-725C amplifier and pClamp9 (Axon Instruments, Foster City, Calif.) software. Oocytes were bathed in a small-volume Warner oocyte bath and viewed with a Fisher dissection microscope. Bath solution for whole-cell oocyte recordings was (in mM): 96 NaCl, 4 KCl, 0.7 MgCl2, 1 CaCl2, 10 HEPES (pH 7.4); whole-cell oocyte TEVC pipettes were of 0.2-2 M resistance when filled with 3 M KCl. Experiments were performed 24-48 hours after cRNA injection. For assessment of current-voltage relationships in the absence or presence of dabco derivatives, oocytes were held at −80 mV, stepped for 2 seconds at voltages between −80 mV and +60 mV in 20 mV steps (Kv2.1) or between −80 and +50 mV in 10 mV steps (Kv3.4), then held for 500 ms at −40 mV before returning to the holding potential. For assessment of block during wash-in of dabco derivatives at a single voltage, oocytes were held at −80 mV, and repetitively stepped to 0 mV for 2 s with an interpulse interval of 10 s or 60 s as indicated. A range of concentrations of dabco or dabco derivatives were washed in via the bath solution during repetitive single-voltage pulses (after an initial period of 5 pulses with control solution to ensure current stabilization) until equilibrium block was achieved, to establish dose-responses. Inhibited currents are compared to the current at the end of 5-pulse control period, thus some bar graphs show ‘control’ current values slightly less than 1, and with an error bar, to show how much currents deviate in the absence of drug. Washout was performed after the highest concentration of blocker was washed in. In cases where washout was achieved, only those recordings in which current returned to within 10% of original current level were used for construction of dose-response curves. For cysteine protection experiments using the K356C variant of Kv2.1, a dabco derivative (JC638.2a) was washed in to equilibrium block, followed by wash-in of a solution containing both JC638.2a and MTSET until no further changes in current were seen; following this the solution was washed out with standard bath solution. As controls for this protection analysis, JC638.2a or MTSET were washed in alone until equilibrium block, then washed out.

[1] = K356C-Kv2.1, JC638.2α plus MTSET

## c1cc(C[N+]23CCN(CC2)CC3)ccc1C[N+]12CCN(CC1)CC2 [JC638.2α, α,α′-[bis(4-aza-1-azoniabicyclo[2.2.2]octanyl)]p-xylene]
Kv2.1 Y380T
  IC50: 185 ± 41 µM
  slope of dose response curve: 1.3
Kv2.1-K356C; K356C mutant
  current inhibition, administered alone: 62±3%
Kv2.1-K356C; K356C mutant, administered alone
  reversibility of block with washout: reversed with washout
Kv2.1-K356C; [1]
  current inhibition, co-application with MTSET after pre-application: 84±1%
  reversibility with washout, co-application with MTSET: completely reversible with washout
